# Reference: patent publication US20140263071A1, “METHOD FOR COLLECTING METALS” (CHEMEC OY AB, priority 2011, published 2014)
# Marks after values point to notes of the source that are not given here.
# What was measured:
# [1] = Purification of waste water containing heavy metals, TS 2 (Example 17)
# Procedure: Waste water sample from dumping site containing some heavy metals: ca. 2 g/l of Ca^2+; […] of As^3+ (or As^5+), Cr^3+, Fe^2/3+, Pb^2+, Sr^2+, Zn^2+ and Hg^2+; pH 3.56.
# TS 2 (100 ml), which initial metal cation concentrations were determined by AAS and ICP-AES methods, was treated with 1a (1.0 g) with stirring for 24 h. After filtration trough 0.2 μm syringe filter metal concentrations in solution were determined.
# [2] = Purification of water draining through the dump site, TS 1 (Example 16)
# Procedure: Drainage water sample was taken from dumping site containing polluted soil: ca. 200 mg/l of Ca^2+ and Mg^2+; 0.05-0.3 mg/l of Al^3+, Ba^2+, Mn^2+, Mo^6+, Ni^2+ and Zn^2+; ≦0.05 mg/l of As^3+ (or As^5+), Cd^2+ and Pb^2+; pH 3.53.
# Test Sample 1 (TS 1, 100 ml), which initial metal cation concentrations were determined by using ICP-AES method, was treated with 1a (1.0 g) with stirring for 24 h. After filtration trough 0.2 μm syringe filter metal concentrations in solution were determined and removal per cents were calculated. Since TS 1 contained only small amounts of As, Cd and Pb, sample was spiked with known amounts of these metal cations. The spiked sample (100 ml) was treated with 1a (1 g) as original TS 1 sample.
# [3] = Collection capacity (Example 10); details: 100 ppm starting concentration
# Procedure: A water solution (110 ml) containing known amount of single cationic element or elements, typically 0.5-200 ppm, was prepared from Merch Titrisol® standard solution. After adjusting pH by using acid (e.g. HCl or HNO3) or base (e.g. NaOH) to desired initial value, sample A (10 ml) was taken followed by adding 100 mg of selected solid complexation agent. The mixture was stirred at room temperature for 24 h and sample B (10 ml) was taken. Samples A and B were filtrated separately trough 0.2 μm syringe filter and the concentration of the studied element or elements in both solution was determined by using atomic absorption spectrophotometer. The expulsion percent was determined from the concentration differences between the sample solutions A and B.
# Capacity of 1a to collect selected metals were determined following the general procedure described above by using 100 ppm starting metal concentration in each experiment and 1a (100 mg) at selected pH. Amounts of removed metals from the mixture were determined by using AAS. Results are collected in table 5 and are given in mg of metal bound to 1 g of 1a.
# [4] = Purification of ash water from toxic waste disposal plant, TS 3 (Example 18)
# Procedure: An ash sample (200 g) obtained from toxic waste disposal plant was suspended to water (2.0 l) and stirred for 24 h and filtrated. Approximate metal concentrations (pH 3.62): 1-4 g/l of Ca^2+, K^+ and Na^+, 0.1-0.2 g/l of Al^3+, Mg^2+ and Zn^2+; ≦0.02 g/l of Cd^2+, Mn^2+, Pb^2+ and Sr^2+.
# TS 3, TS 3 diluted to 1:10 (TS 3a), TS 3 diluted to 1:100 (TS 3b) and Cd^2+, Pb^2+ and Zn^2+ spiked samples TS 3a and TS 3b were each treated with 1a (1.0 g) with stirring for 24 h. These five samples were separately filtrated trough 0.2 μm syringe filter and metal concentrations in each solution were determined by ICP-AES method before and after treatment with 1a.
smiles,measurement,setting,value
"NCCCCCCCCCCC(O)(P(=O)(O)O)P(=O)(O)O [Compound 1a, 11-Amino-1-hydroxyundecane-1,1-diyldiphosphonic acid]",Expulsion [%],[1]; As^3/5+,≥ 61.7^2) %
same,Expulsion [%],[1]; Ca^2+,75.4%
same,Expulsion [%],[1]; Cd^2+,≥ 89.4^5) %
same,Expulsion [%],[1]; Cr^3+,23.9%
same,Expulsion [%],[1]; Fe^2/3+,22.8%
same,Expulsion [%],[1]; Hg^1/2+ (CVAAS),99.0^1) %
same,Expulsion [%],[1]; Pb^2+,≥ 68.9^5) %
same,Expulsion [%],[1]; Sr^2+,84.3%
same,Expulsion [%],[1]; Zn^2+,76.8%
same,Expulsion [%],"[2]; Spiked TS 1, Al^3+",67%
same,Expulsion [%],"[2]; Spiked TS 1, As^3/5+",0%
same,Expulsion [%],"[2]; Spiked TS 1, Ba^2+",26%
same,Expulsion [%],"[2]; Spiked TS 1, Ca^2+",48%
same,Expulsion [%],"[2]; Spiked TS 1, Cd^2+",96%
same,Expulsion [%],"[2]; Spiked TS 1, Mg^2+",78%
same,Expulsion [%],"[2]; Spiked TS 1, Mn^2+",≥ 51^2) %
same,Expulsion [%],"[2]; Spiked TS 1, Ni^2+",33%
same,Expulsion [%],"[2]; Spiked TS 1, Pb^2+",94%
same,Expulsion [%],"[2]; Spiked TS 1, Zn^2+",90%
same,Expulsion [%],"[2]; TS 1, Al^3+",76%
same,Expulsion [%],"[2]; TS 1, Ba^2+",32%
same,Expulsion [%],"[2]; TS 1, Ca^2+",51%
same,Expulsion [%],"[2]; TS 1, Mg^2+",81%
same,Expulsion [%],"[2]; TS 1, Mn^2+",≥ 57^2) %
same,Expulsion [%],"[2]; TS 1, Ni^2+",50%
same,Expulsion [%],"[2]; TS 1, Zn^2+",89%
same,Capacity,"[3]; Ag^+, pH 2.5",94.6 mg/g
same,Capacity,"[3]; Au^3+, pH 4.0",19.0 mg/g
same,Capacity,"[3]; Ca^2+, pH 4.0",50.9 mg/g
same,Capacity,"[3]; Cd^2+, pH 4.0",74.1 mg/g
same,Capacity,"[3]; Co^2+, pH 4.5",85.5 mg/g
same,Capacity,"[3]; Cr^3+, pH 3.5",9.9 mg/g
same,Capacity,"[3]; Cu^2+, pH 4.0",61.6 mg/g
same,Capacity,"[3]; Fe^2+, pH 3.0",82.7 mg/g
same,Capacity,"[3]; Fe^3+, pH 3.0",15.2 mg/g
same,Capacity,"[3]; Mo^6+, pH 9.1",97.2 mg/g
same,Capacity,"[3]; Ni^2+, pH 4.0",13.1 mg/g
same,Capacity,"[3]; Pb^2+, pH 4.0",85.6 mg/g
same,Capacity [mg/g],"[3]; Sc^3+, pH 2.0",16.9^1) mg/g
same,Capacity,"[3]; Zn^2+, pH 4.0",70.9 mg/g
same,Expulsion [%],"[4]; Spiked TS 3a, Al^3+",≥ 79.3^5) %
same,Expulsion [%],"[4]; Spiked TS 3a, Ca^2+",88.9%
same,Expulsion [%],"[4]; Spiked TS 3a, Cd^2+",75.6%
same,Expulsion [%],"[4]; Spiked TS 3a, K^+",1.8%
same,Expulsion [%],"[4]; Spiked TS 3a, Na^+",3.5%
same,Expulsion [%],"[4]; Spiked TS 3a, Pb^2+",≥ 97.8^5) %
same,Expulsion [%],"[4]; Spiked TS 3a, Sr^2+",14.6%
same,Expulsion [%],"[4]; Spiked TS 3a, Zn^2+",93.6%
same,Expulsion [%],"[4]; Spiked TS 3b, Ca^2+",95.2%
same,Expulsion [%],"[4]; Spiked TS 3b, Cd^2+",96.2%
same,Expulsion [%],"[4]; Spiked TS 3b, K^+",0.8%
same,Expulsion [%],"[4]; Spiked TS 3b, Na^+",7.1%
same,Expulsion [%],"[4]; Spiked TS 3b, Pb^2+",≥ 98.1^5) %
same,Expulsion [%],"[4]; Spiked TS 3b, Sr^2+",60.2%
same,Expulsion [%],"[4]; Spiked TS 3b, Zn^2+",91.3%
same,Expulsion [%],"[4]; TS 3, Al^3+",3.4^ %
same,Expulsion [%],"[4]; TS 3, Ca^2+",1.9%
same,Expulsion [%],"[4]; TS 3, Cd^2+",2.1%
same,Expulsion [%],"[4]; TS 3, K^+",2.9%
same,Expulsion [%],"[4]; TS 3, Mg^2+",1.5%
same,Expulsion [%],"[4]; TS 3, Mn^2+",1.9%
same,Expulsion [%],"[4]; TS 3, Na^+",10.8%
same,Expulsion [%],"[4]; TS 3, Pb^2+",65.7%
same,Expulsion [%],"[4]; TS 3, Sr^2+",2.1%
same,Expulsion [%],"[4]; TS 3, Zn^2+",3.6%
same,Expulsion [%],"[4]; TS 3a (TS 3 diluted 1:10), Al^3+",≥ 71.8^5) %
same,Expulsion [%],"[4]; TS 3a (TS 3 diluted 1:10), Ca^2+",88.1%
same,Expulsion [%],"[4]; TS 3a (TS 3 diluted 1:10), K^+",0%
same,Expulsion [%],"[4]; TS 3a (TS 3 diluted 1:10), Na^+",2.0%
same,Expulsion [%],"[4]; TS 3a (TS 3 diluted 1:10), Pb^2+",≥ 35.5^5) %
same,Expulsion [%],"[4]; TS 3a (TS 3 diluted 1:10), Sr^2+",12.5%
same,Expulsion [%],"[4]; TS 3a (TS 3 diluted 1:10), Zn^2+",0.0%
same,Expulsion [%],"[4]; TS 3b (TS 3 diluted 1:100), Ca^2+",93.1%
same,Expulsion [%],"[4]; TS 3b (TS 3 diluted 1:100), K^+",1.6%
same,Expulsion [%],"[4]; TS 3b (TS 3 diluted 1:100), Na^+",9.9%
same,Expulsion [%],"[4]; TS 3b (TS 3 diluted 1:100), Sr^2+",53.4%
same,Expulsion [%],"[4]; TS 3b (TS 3 diluted 1:100), Zn^2+",≥ 48.5^5) %
